Where “and” joins values, the source holds several entries; their conditions need not be identical. Identical values can stand only once.
How the values were obtained:
[1] = test system: Palmer amaranth (AMAPA); experiment: post-emergence test, weed control; assay type: in vivo, Amaranthus palmeri; conditions: post-emergent, 28 DAT, COC 1%, rate g ai/ha by row: r5 94, r6 125, r7 250, r8 1.25, r9 2.5, r10 5, r11 94+1.25, r13 125+1.25, r15 94+2.5, r17 125+2.5, r19 94+5, r21 125+5
Procedure: (§1) Test compositions containing the test compounds were diluted with water to provide the appropriate test rate concentrations.
(§2) For post-emergence testing, seeds of each species for each rate of application of each herbicide solution were planted in 7.5 cm×7.5 cm plastic pots filled with potting soil. The seeds were germinated and the resulting plants were allowed to grow in a greenhouse until they reached a growth stage, such as height, suitable for testing. […] Pots of post-emergent treated plants were returned to the greenhouse and not watered for 24 hours after treatment. Thereafter they were regularly watered and fertilized for the duration of the test.
(§3) The control of weeds was evaluated in each experimental test at 21 for wheat and 28 days after treatment (DAT) for all species. […] The rating system is as follows in Table 1.

[2] = test system: Large crabgrass (DIGSA); experiment: pre-emergence test, weed control; assay type: in vivo; conditions: pre-emergent, 28 DAT; rate g ai/ha by row: r4 94, r5 50, r6 100, r7 52.5, r8 70, r9 94+52.5, r10 94+70, r11 50+52.5, r12 50+70, r13 100+52.5, r14 100+70
Procedure: as §1
(§4) For pre-emergence testing, four disposable fiber flats (6 inch by 10 inch) for each rate of application of each herbicide solution were filled with top soil, to which seeds of each species were planted in furrows made by a template pressed on the top of the soil. The furrows were covered with soil after planting the seed and were watered well before application of the test compounds.
(§5) Fiber flats designated for treatment were placed in a spray chamber having a static platform and a movable sprayer and the height of the spray nozzle was 10.5 inches above the soil level. Once the sprayer was calibrated using water for spray volume of 30 gallons per acre, flats were sprayed with sprayer at a speed to receive a coverage equivalent of 30 gallons per acre. The application rates are those shown in the Tables below for the individual herbicidal solutions and the herbicide compositions of this invention. The pre-emergence flats were immediately placed in the greenhouse and watered lightly after treatment. Thereafter they were regularly watered and fertilized for the duration of the test.
(§6) The control of weeds was evaluated in each experimental test at 21 for wheat and 28 days after treatment (DAT) for all species. Data were analyzed using Minitab software at 95% confidence interval. The results, shown as an average of the replications, were compared with results observed in untreated control flats in the same tests. Percent control was determined by a method similar to the 0 to 100 rating system disclosed in “Research Methods in Weed Science,” 2nd ed., B. Truelove, Ed.; Southern Weed Science Society; Auburn University, Auburn, Ala., 1977. The rating system is as follows in Table 1.

[3] = test system: Hemp sesbania (SEHE8); experiment: pre-emergence test, weed control; assay type: in vivo; conditions: pre-emergent, 28 DAT; BFL at 187.5 g, PYX at 90 g, combination of both
Procedure: as §1, §4, §5, §6

[4] = test system: Rice flatsedge (CYPIR); experiment: pre-emergence test, weed control; assay type: in vivo; conditions: pre-emergent, 28 DAT; rate g ai/ha by row: r5 94, r6 125, r7 250, r8 3.28, r9 6.56, r10 13.1, r11 94+3.28, r12 94+6.56, r13 94+13.1, r14 125+3.28, r15 125+6.56, r16 125+13.1
Procedure: as §1, §4, §5, §6

[5] = test system: velvetleaf (IPOHE); experiment: pre-emergence test, weed control; assay type: in vivo; conditions: pre-emergent, 21 DAT, rate g ai/ha by row: r4 94, r5 125, r6 250, r7 125, r8 250, r9 500, r10 94+125, r11 125+125, r12 94+250, r13 125+250, r14 94+500, r15 125+500
Procedure: as §1, §4, §5, §6

[6] = test system: Velvetleaf (ABUTH); experiment: pre-emergence test, weed control; assay type: in vivo, Abutilon theophrasti; conditions: pre-emergent, 21 DAT, rate g ai/ha by row: r4 94, r5 125, r6 250, r7 125, r8 250, r9 500, r10 94+125, r11 125+125, r12 94+250, r13 125+250, r14 94+500, r15 125+500
Procedure: as §1, §4, §5, §6

[7] = test system: beggerticks (BIDPI); experiment: post-emergence test, weed control; assay type: in vivo, Bidens pilosa; conditions: post-emergent, 28 DAT, COC 1%, rate g ai/ha by row: r5 94, r6 125, r7 250, r8 1.25, r9 2.5, r10 5, r11 94+1.25, r13 125+1.25, r15 94+2.5, r17 125+2.5, r19 94+5, r21 125+5
Procedure: as §1, §2, §3

[8] = test system: Green foxtail (SETVI); experiment: pre-emergence test, weed control; assay type: in vivo, Setaria viridis; conditions: pre-emergent, 28 DAT
Procedure: as §1, §4, §5, §6

[9] = test system: Blackgrass (ALOMY); experiment: pre-emergence test, weed control; assay type: in vivo; conditions: pre-emergent, 28 DAT
Procedure: as §1, §4, §5, §6

[10] = test system: Yellow foxtail (SETLU); experiment: pre-emergence test, weed control; assay type: in vivo; conditions: pre-emergent, 28 DAT, (−)-BFL >95% e.e., rate g ai/ha by row: r6 62, r7 125, r8 125, r9 250, r10 445, r11 890, r12 45, r13 90, r14 62+125, r15 125+125, r16 62+250, r17 125+250, r18 62+445, r19 125+445, r20 62+890, r21 125+890, r22 62+45, r23 125+45, r24 62+90, r25 125+90
Procedure: as §1, §4, §5, §6

[11] = (+)-BFL >95% e.e., rate g ai/ha by row: r6 62.5, r7 125, r8 62.5, r9 125, r10 222, r11 445, r12 22.5, r13 45, r14 62.5+62.5, r15 125+62.5, r16 62.5+125, r17 125+125, r18 62.5+222, r19 125+222, r20 62.5+445, r21 125+445, r22 62.5+22.5, r23 125+22.5, r24 62.5+45, r25 125+45, 62.5 g ai/ha
[12] = (+)-BFL >95% e.e., rate g ai/ha by row: r6 62.5, r7 125, r8 62.5, r9 125, r10 222, r11 445, r12 22.5, r13 45, r14 62.5+62.5, r15 125+62.5, r16 62.5+125, r17 125+125, r18 62.5+222, r19 125+222, r20 62.5+445, r21 125+445, r22 62.5+22.5, r23 125+22.5, r24 62.5+45, r25 125+45, 125 g ai/ha
[13] = (−)-BFL >95% e.e., rate g ai/ha by row: r6 62, r7 125, r8 125, r9 250, r10 445, r11 890, r12 45, r13 90, r14 62+125, r15 125+125, r16 62+250, r17 125+250, r18 62+445, r19 125+445, r20 62+890, r21 125+890, r22 62+45, r23 125+45, r24 62+90, r25 125+90, 125 g ai/ha
[14] = (−)-BFL >95% e.e., rate g ai/ha by row: r6 62, r7 125, r8 125, r9 250, r10 445, r11 890, r12 45, r13 90, r14 62+125, r15 125+125, r16 62+250, r17 125+250, r18 62+445, r19 125+445, r20 62+890, r21 125+890, r22 62+45, r23 125+45, r24 62+90, r25 125+90, 250 g ai/ha

## CCC(Oc1ccc(F)c(C(F)(F)F)c1)C(=O)NCc1ccccc1 (racemic) [BFL, 2-[4-fluoro-3-(trifluoromethyl)phenoxy]-N-(phenylmethyl)butanamide]
[1]; BFL at 94 g ai/ha
  percentage of weed control, Palmer amaranth AMAPA: 46%
[1]; BFL at 125 g ai/ha
  percentage of weed control, Palmer amaranth AMAPA: 48%
[1]; BFL at 250 g ai/ha
  percentage of weed control, Palmer amaranth AMAPA: 53%
[2]
  percentage of weed control, DIGSA: 25%
[3]
  control of hemp sesbania: 28%
[4]
  percentage of weed control, Rice flatsedge CYPIR: 71% and 88% and 100%
[5]; 94 g ai/ha
  percentage of weed control, Morningglory IPOHE: 10%
[5]; 250 g ai/ha
  percentage of weed control, Morningglory IPOHE: 8%
[6]; 94 g ai/ha
  percentage of weed control, Velvetleaf ABUTH: 10%
[6]; 125 g ai/ha
  percentage of weed control, Velvetleaf ABUTH: 15%
[6]; 250 g ai/ha
  percentage of weed control, Velvetleaf ABUTH: 14%
[7]; BFL at 94 g ai/ha
  percentage of weed control, Beggerticks BIDPI: 5%
[7]; BFL at 125 g ai/ha
  percentage of weed control, Beggerticks BIDPI: 10%

## CC1(C)CON(Cc2ccc(Cl)cc2Cl)C1=O [DCI, 2-(2,4-dichlorophenyl)methyl-4,4-dimethyl-3-isoxazolidinone]
[8]; [11]
  percentage of weed control, SETVI: 91%
[8]; [12]
  percentage of weed control, SETVI: 99%
[8]; [13]
  percentage of weed control, SETVI: 98%
[8]; [14]
  percentage of weed control, SETVI: 99%
[9]; [11]
  percentage of weed control, ALOMY: 65%
[9]; [12]
  percentage of weed control, ALOMY: 64%
[9]; [13]
  percentage of weed control, ALOMY: 98%
[9]; [14]
  percentage of weed control, ALOMY: 99%
[10]; 125 g ai/ha
  percentage of weed control, SETLU: 75%
[10]; 250 g ai/ha
  percentage of weed control, SETLU: 96%
